Legend:
[1] = test system: BaF3-CRLF2 Phe232Cys cells; assay: Toxicity of agents with activity against PKC family kinases in BaF3 cells; assay type: cell-based, murine
[2] = test system: BaF3 cells expressing CRLF2/mutant JAK2; assay: Viability of BaF3 cells exposed to JAK inhibitor-1 for 72 hours, relative to vehicle; assay type: cell-based, murine; conditions: BaF3 CRLF2/mutant JAK2, no cytokines, FIG. 5
Method: (§1) FIG. 5 is a graph depicting signal activation and dependence on JAK signaling. BaF3 cells that stably express BCR/ABL, CRLF2 and/or JAK2 were grown in the absence of cytokines. +IL3 indicates unmodified BaF3 cells grown in the presence of 500 pg/mL IL-3. Data represents the ratio of viable cells exposed to JAK inhibitor-1 (Calbiochem) at varying concentrations for 72 hours, compared to the same cell line exposed to vehicle. Error bars indicate one standard deviation.
(§2) As expected, TSLP had no effect on STAT5, ERK or JAK2 phosphorylation in cells with mutant CRLF2 or JAK2 proteins.

[3] = test system: BaF3 cells expressing CRLF2 Phe232Cys; assay: as above; assay type: cell-based, murine; conditions: no cytokines, FIG. 5
Method: as §1, §2

[4] = test system: BaF3 cells that express CRLF2/mutant JAK2; assay: In vitro cell growth in the absence of IL-3 with TSLP added; assay type: cell-based, murine
Method: (§3) FIG. 3 is a group of four graphs depicting in vitro cell growth of UT7 cells and BaF cells that stably express CRLF2 and/or JAK2 alleles grown in the absence of GM-CSF (UT7) or IL-3 (BaF3). For the bottom right panel, TSLP 1 ng/mL was added at day 0, as indicated. Growth is the number of viable cells relative to the number of cells initially seeded on day 0. Error bars represent one standard deviation.
(§4) Unlike cells that express CRLF2/IL-7R, the addition of TSLP had no effect on the growth of BaF3 cells expressing CRLF2 Phe232Cys (FIG. 3).

[5] = test system: BaF3 cells that express CRLF2 Phe232Cys/IL-7R; assay: as above; assay type: cell-based, murine; conditions: BaF3 CRLF2 Phe232Cys/IL-7R, TSLP 1 ng/mL added at day 0, FIG. 3
Method: as §3, §4

[6] = test system: BaF3 cells expressing CRLF2 Phe232Cys; assay: as above; assay type: cell-based, murine; conditions: TSLP 1 ng/mL added at day 0, FIG. 3
Method: as §3, §4

[7] = test system: STAT5, ERK or JAK2 phosphorylation in cells with mutant CRLF2 or JAK2 proteins; assay: Phosphorylation of STAT5, ERK and JAK2 in BaF3 cells treated with TSLP; assay type: cell-based, murine
Description: In BaF3 cells, both CRLF2 Phe232Cys and CRLF2/mutant JAK2 promoted the phosphorylation of the JAK targets STAT5 and ERK.
as §2

[8] = test system: phospho-JAK2 in CRLF2/IL-7R cells; assay: Phospho-JAK2 in CRLF2/IL-7R cells treated with TSLP; assay type: cell-based, murine
Description: as §2

[9] = target: the molecule itself; assay: immunoblot of BaF3 cells under reducing and non-reducing conditions (homodimer)
Method: (§5) The CRLF2 Phe232 residue is near the junction of the extracellular and transmembrane domains. Mutations that introduce cysteine residues in this region of other receptor tyrosine kinases, such as RET, can activate signal transduction through intermolecular disulfide-bonded dimers. To confirm that CRLF2 Phe232Cys promotes constitutive dimerization, immunoblots in BaF3 cells expressing wild-type CRLF2 or CRLF2 Phe232Cys were performed under both reducing and non-reducing conditions. Under non-reducing conditions, the molecular weight of the CRLF2 Phe232Cys band, but not the wild-type band, was doubled, consistent with constitutive dimerization through the cysteine residues.

[10] = target: the molecule itself; assay: immunoblot of BaF3 cells under reducing and non-reducing conditions (self-association)
Method: as §5

Cn1c2ccccc2c2c3c(c4c5ccccc5n(CCC#N)c4c21)CNC3=O [Go6976]
toxicity in BaF3-CRLF2 Phe232Cys cells as compared to BaF3 cells expressing wild-type CRLF2 [1]: selective toxicity

CO[C@@H]1[C@H](N(C)C(=O)c2ccccc2)C[C@H]2O[C@]1(C)n1c3ccccc3c3c4c(c5c6ccccc6n2c5c31)C(=O)NC4 [PKC412]
toxicity in BaF3-CRLF2 Phe232Cys cells as compared to BaF3 cells expressing wild-type CRLF2 [1]: selective toxicity

CN[C@@H]1C[C@H]2O[C@@](C)([C@@H]1OC)n1c3ccccc3c3c4c(c5c6ccccc6n2c5c31)C(=O)N[C@@H]4O [UCN-01]
toxicity in BaF3-CRLF2 Phe232Cys cells as compared to BaF3 cells expressing wild-type CRLF2 [1]: selective toxicity

CC(C)(C)c1nc2c3cc[nH]c(=O)c3c3cc(F)ccc3c2[nH]1 [small molecule JAK inhibitor]
sensitivity of cells to JAK inhibitor (ratio of viable cells versus vehicle) [2]: highly sensitive
sensitivity of cells to JAK inhibitor (ratio of viable cells versus vehicle) [3]: highly sensitive

TSLP: thymic stromal lymphopoietin, cytokine ligand of the CRLF2/IL-7R heterodimer
effect of TSLP on cell growth [4]: did not promote the growth
effect of TSLP on cell growth [5]: promoted the growth
effect of TSLP on cell growth [6]: no effect
effect of TSLP on STAT5, ERK or JAK2 phosphorylation [7]: no effect
phospho-JAK2 after TSLP treatment [8]: no detectable phospho-JAK2

COC(=O)[C@@]1(O)C[C@H]2O[C@]1(C)n1c3ccccc3c3c4c(c5c6ccccc6n2c5c31)C(=O)NC4 [k252a]
toxicity in BaF3-CRLF2 Phe232Cys cells as compared to BaF3 cells expressing wild-type CRLF2 [1]: selective toxicity

B1: CRLF2 Phe232Cys (F232C mutant of human CRLF2) (receptor)
chain: QGGAAEGVQIQIIYFNLETVQVTWNASKYSRTNLTFHYRFNGDEAYDQCTNYLLQEGHTSGCLLDAEQRDDILYFSIRNGTHPVFTASRWMVYYLKPSSPKHVRFSWHQDAVTVTCSDLSYGDLLYEVQYRSPFDTEWQSKQENTCNVTIEGLDAEKCYSFWVRVKAMEDVYGPDTYPSDWSEVTCWQRGEIRDACAETPTPPKPKLSKCILISSLAILLMVSLLLLSLWKLWRVKKFLIPSVPDPKSIFPGLFEIHQGNFQEWITDTQNVAHLHKMAGAEQESGPEEPLVVQLAKTEAESPRMLDPQTEEKEASGGSLQLPHQPLQGGDVVTIGGFTFVMNDRSYVAL
notes: Expressed in BaF3 cells; also called CRLF2 F232C; CRLF2 711T>G
binding result [9]: binds

B2: wild-type human cytokine receptor-like factor 2 (CRLF2) (receptor)
chain: QGGAAEGVQIQIIYFNLETVQVTWNASKYSRTNLTFHYRFNGDEAYDQCTNYLLQEGHTSGCLLDAEQRDDILYFSIRNGTHPVFTASRWMVYYLKPSSPKHVRFSWHQDAVTVTCSDLSYGDLLYEVQYRSPFDTEWQSKQENTCNVTIEGLDAEKCYSFWVRVKAMEDVYGPDTYPSDWSEVTCWQRGEIRDACAETPTPPKPKLSKFILISSLAILLMVSLLLLSLWKLWRVKKFLIPSVPDPKSIFPGLFEIHQGNFQEWITDTQNVAHLHKMAGAEQESGPEEPLVVQLAKTEAESPRMLDPQTEEKEASGGSLQLPHQPLQGGDVVTIGGFTFVMNDRSYVAL
notes: Expressed by retrovirus in BaF3 cells and detected by immunoblot of the cells; also called wt CRLF2; CRL2
binding result [10]: no binding

From US20120282258A1, “CRLF2 IN PRECURSOR B-CELL ACUTE LYMPHOBLASTIC LEUKEMIA” (DANA-FARBER CANCER INSTITUTE, INC., priority 2009, published 2012)
